These results are taken from the supplement of paper PMC6965134.

± gives the standard deviation of the averaged measurements.

A short description of the data set: TIMS collisional cross section (CCS, N2) of the lipid ion; higher = larger ion cross section. Conditions: ionization mode: negative, one isomer drawn. The method, then:
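Lipid extracts of human plasma (NIST SRM 1950), mouse liver or HeLa cells were separated by nanoflow C18 LC (30 min gradient) and analysed by TIMS-PASEF on a timsTOF Pro. Ion mobility was calibrated with the Agilent tuning mix (negative mode ions) and converted to collisional cross sections (Mason–Schamp, N2).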
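Note: lipids from MTBE extraction, five replicate injections per sample, 100 ms TIMS ramp spanning 0.6–1.95 Vs/cm², lipid identity assigned from PASEF MS/MS spectra.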

For the compound `CCCCC/C=C\C/C=C\CCCC/C=C\CCCC(=O)O[C@H](COC(=O)CCCCCCCCCCCCCCCCC)COP(=O)([O-])OCC[N+](C)(C)C` [PC 18:0_20:3@], under “sample type: Mouse Liver, ion (formula + adduct): [C46H86NO8P+HCOO] 1-”, the “TIMS collisional cross section” value is reported as 300.6 Å².

For the compound `CCCC/C=C\CCCCCCCC(=O)OC[C@H](CO)OC(=O)CCCCCCCCC/C=C\C/C=C\CCCCC` [DG 14:1@_20:2_0:0], the “TIMS collisional cross section” value (sample type: Human plasma, ion (formula + adduct): [C37H66O5-H] 1-) is on record as 247.2 Å².

Take `CCCCCCCC/C=C\CCCCCCCCCC(=O)O[C@H](CO/C=C\CCCCCCCCCCCCCC)COP(=O)(O)OCCN` [PE P- 16:0@_20:1]: where the note is “sample type: Mouse Liver, ion (formula + adduct): [C41H80NO7P-H] 1-”, the “TIMS collisional cross section” value worked out at 273.5 Å².

For the compound `CC/C=C\C/C=C\C/C=C\C/C=C\C/C=C\C/C=C\CCC(=O)O[C@H](COC(=O)CCCCCCCCCCCCCCC)COP(=O)([O-])OCC[N+](C)(C)C` [PC 16:0_22:6], the “TIMS collisional cross section” value by setting is: (sample type: Human plasma, ion (formula + adduct): [C46H80NO8P+HCOO] 1-) 297.8 Å²; (sample type: Mouse Liver, ion (formula + adduct): [C46H80NO8P+HCOO] 1-) 297.75 ± 0.78 Å².

In the case of `CC/C=C\C/C=C\C/C=C\C/C=C\C/C=C\CCCC(=O)OC[C@H](COP(=O)(O)OC[C@H](N)C(=O)O)OC(=O)CCCCCCCCCCCCCCCCC` [PS 20:5_18:0], the “TIMS collisional cross section” value (sample type: Mouse Liver, ion (formula + adduct): [C44H76NO10P-H] 1-) came to 284.6 Å².

For the compound `CCCCC/C=C\C/C=C\CCCCCCCC(=O)O[C@H](COC(=O)CCCCCCC/C=C\CCCCCC)COP(=O)([O-])OCC[N+](C)(C)C` [PC 16:1@_18:2], the “TIMS collisional cross section” value (sample type: Mouse Liver, ion (formula + adduct): [C42H78NO8P-H] 1-) is 273.3 Å².

Regarding `CCCCC/C=C\C/C=C\CCCCCCCC(=O)O[C@H](COC(=O)CCCCCCC/C=C\CCCCC)COP(=O)([O-])OCC[N+](C)(C)C` [PC 15:1_18:2], the “TIMS collisional cross section” value (sample type: Mouse Liver, ion (formula + adduct): [C41H76NO8P+HCOO] 1-) is recorded as 286.5 Å².

Take `CCCCCCCCCCCCCCCCCC(=O)OC[C@H](COP(=O)([O-])OCC[N+](C)(C)C)OC(=O)CCCCCCCCCCCCCCCCC` [PC 18:0_18:0]: the “TIMS collisional cross section” value (sample type: Mouse Liver, ion (formula + adduct): [C44H88NO8P+HCOO] 1-) stood at 298.4 Å².

For the compound `C=CC(=O)O[C@H](COC(=O)CCCCCCCCCCCCCCC)COP(=O)([O-])OCC[N+](C)(C)C` [PC 16:0_3:1@], the “TIMS collisional cross section” value is on record as 252.2 Å² (sample type: Human plasma, ion (formula + adduct): [C27H52NO8P+OAcO] 1-) and 244.7 Å² (sample type: Mouse Liver, ion (formula + adduct): [C27H52NO8P+AcO] 1-).

For the compound `CCCCC/C=C\C/C=C\C/C=C\C/C=C\CCCC(=O)OC[C@H](COP(=O)(O)OCCN)OC(=O)CCCCCCC/C=C\C/C=C\CCCCC` [PE 20:4_18:2], the “TIMS collisional cross section” value (sample type: Mouse Liver, ion (formula + adduct): [C43H74NO8P-H] 1-) turned out to be 272.7 Å².

Turning to `CCCCC/C=C\C/C=C\C/C=C\C/C=C\CCCC(=O)O[C@H](COCCCCCCCC/C=C\CCCCCCCC)COP(=O)([O-])OCC[N+](C)(C)C` [PC O- 18:1@_20:4], the “TIMS collisional cross section” value (sample type: Human plasma, ion (formula + adduct): [C46H84NO7P+HCOO] 1-) turned out to be 297.5 ± 0.42 Å²; the “TIMS collisional cross section” value (sample type: Human plasma, ion (formula + adduct): [C46H84NO7P-CH3] 1-) is 282.5 Å²; the “TIMS collisional cross section” value (sample type: Mouse Liver, ion (formula + adduct): [C46H84NO7P+HCOO] 1-) amounted to 296.1 Å²; the “TIMS collisional cross section” value (sample type: Mouse Liver, ion (formula + adduct): [C46H84NO7P-CH3] 1-) stood at 282.5 Å².

As to `CCCCCCCCCCCCCCCCCCCCCC(=O)OC[C@@H](O)COP(=O)([O-])OCC[N+](C)(C)C` [LPC 22:0_0:0], the “TIMS collisional cross section” value worked out at 258.6 Å² (sample type: Human plasma, ion (formula + adduct): [C30H62NO7P+HCOO] 1-) and 258.6 Å² (sample type: Mouse Liver, ion (formula + adduct): [C30H62NO7P+HCOO] 1-).

Turning to `CC/C=C\C/C=C\C/C=C\C/C=C\C/C=C\C/C=C\CCC(=O)O[C@H](COC(=O)CCCCCCCCCCCCC)COP(=O)([O-])OCC[N+](C)(C)C` [PC 14:0@_22:6], the “TIMS collisional cross section” value (sample type: Mouse Liver, ion (formula + adduct): [C44H76NO8P-H] 1-) worked out at 277.87 ± 0.55 Å².

For the compound `CCCCC/C=C\C/C=C\C/C=C\CCCCCCC(=O)O[C@H](COC(=O)CCCC/C=C\C/C=C\C/C=C\CCCCC)COP(=O)([O-])OCC[N+](C)(C)C` [PC 18:3_20:3], the “TIMS collisional cross section” value (sample type: Human plasma, ion (formula + adduct): [C46H80NO8P+AcO] 1-) came to 300.6 Å².

`CCCCC/C=C\C/C=C\C/C=C\CCCCCCC(=O)OC[C@H](COP(=O)(O)OCCN)OC(=O)CCCCCCCCCCCCCCC` [PE 20:3_16:0]: under “sample type: Mouse Liver, ion (formula + adduct): [C41H76NO8P-H] 1-”, the “TIMS collisional cross section” value is 271.1 Å².

Regarding `CC/C=C\C/C=C\C/C=C\C/C=C\C/C=C\C/C=C\CCC(=O)OC[C@H](COP(=O)(O)OCCN)OC(=O)CCCCCCC/C=C\CCCCCCCC` [PE 22:6_18:1], the “TIMS collisional cross section” value (sample type: Mouse Liver, ion (formula + adduct): [C45H76NO8P-H] 1-) was 279.5 ± 0.85 Å².

Turning to `CCCCCCCCCCCCCCCC(=O)OC[C@H](COP(=O)([O-])OCC[N+](C)(C)C)OC(=O)CCCC=O` [Oxidized PC 16:0_5:0], the “TIMS collisional cross section” value by setting is: (sample type: Human plasma, ion (formula + adduct): [C29H56NO9P+HCOO] 1-) 255.5 Å²; (sample type: Mouse Liver, ion (formula + adduct): [C29H56NO9P+AcO] 1-) 258.4 Å².

With `CCCCC/C=C\C/C=C\C/C=C\C/C=C\CCCC(=O)O[C@H](COC(=O)CCCCCCCCCCCCCCCCC)COP(=O)([O-])OCC[N+](C)(C)C` [PC 18:0_20:4], the “TIMS collisional cross section” value is, setting by setting: (sample type: Human plasma, ion (formula + adduct): [C46H84NO8P+HCOO] 1-) 299.5 Å²; (sample type: Mouse Liver, ion (formula + adduct): [C46H84NO8P+HCOO] 1-) 299.5 ± 0.85 Å²; (sample type: Mouse Liver, ion (formula + adduct): [C46H84NO8P-CH3] 1-) 282.4 Å².

As for `CC/C=C\C/C=C\C/C=C\C/C=C\C/C=C\C/C=C\CCC(=O)O[C@H](COC(=O)CCCCCCCCCCCCCCCCCCC)COP(=O)([O-])OCC[N+](C)(C)C` [PC 20:0@_22:6], the “TIMS collisional cross section” value (sample type: Mouse Liver, ion (formula + adduct): [C50H88NO8P+HCOO] 1-) is reported as 308.5 Å².

For the compound `CCCCCCCCCCCCC/C=C/C=C/C(=O)OC[C@H](COP(=O)([O-])OCC[N+](C)(C)C)OC(=O)/C=C/C=C/CCCCCCCCCCCCC` [PC 18:2_18:2], the “TIMS collisional cross section” value reads like this: (sample type: Human plasma, ion (formula + adduct): [C44H80NO8P+HCOO] 1-) 293.4 ± 0.35 Å²; (sample type: Mouse Liver, ion (formula + adduct): [C44H80NO8P+HCOO] 1-) 292.7 Å².

With `CCCCCCCCC/C=C\CCCCCCCC(=O)O[C@H](COC(=O)CCCCCCCCCCCCCCC)COP(=O)(O)OCCN` [PE 16:0_19:1], the “TIMS collisional cross section” value (sample type: Mouse Liver, ion (formula + adduct): [C40H78NO8P-H] 1-) was 271.2 Å².

In the case of `CCCCC/C=C\C/C=C\C/C=C\C/C=C\CCCC(=O)O[C@H](COC(=O)CCCCCCCCCCCCC)COP(=O)([O-])OCC[N+](C)(C)C` [PC 14:0@_20:4], the “TIMS collisional cross section” value (sample type: Mouse Liver, ion (formula + adduct): [C42H76NO8P-H] 1-) is 272.8 Å².

For the compound `CCCCC/C=C\C/C=C\C/C=C\C/C=C\CCCC(=O)O[C@@H](CO)COC(=O)CCCCCCCCCCCCC` [DG 14:0@_20:4_0:0], under “sample type: Human plasma, ion (formula + adduct): [C37H64O5+HCOO] 1-”, the “TIMS collisional cross section” value turned out to be 256.2 Å².

For the compound `CCCCC/C=C\C/C=C\CCCCCCCC(=O)O[C@H](CO/C=C\CCCCCCCCCCCCCC)COP(=O)(O)OCCN` [PE P- 16:0@_18:2], the “TIMS collisional cross section” value (sample type: Human plasma, ion (formula + adduct): [C39H74NO7P-H] 1-) was 265.6 Å².

As for `CCCCC/C=C\C/C=C\C/C=C\C/C=C\CCCCCC(=O)O[C@H](COC(=O)CCCCCCCCCCCCCCCCC)COP(=O)([O-])OCC[N+](C)(C)C` [PC 18:0_22:4], the “TIMS collisional cross section” value turned out to be 305.1 Å² (sample type: Human plasma, ion (formula + adduct): [C48H88NO8P+HCOO] 1-) and 304.5 Å² (sample type: Mouse Liver, ion (formula + adduct): [C48H88NO8P+HCOO] 1-).

With `CC/C=C\C/C=C\C/C=C\C/C=C\C/C=C\C/C=C\CCC(=O)O[C@H](COC(=O)CCCCCCC/C=C\CCCCCCCC)COP(=O)(O)OC[C@H](N)C(=O)O` [PS 18:1@_22:6], the “TIMS collisional cross section” value (sample type: Mouse Liver, ion (formula + adduct): [C46H76NO10P-H] 1-) is listed as 288 Å².

Regarding `CCCCCCCCCCCCCCCC(=O)O[C@H](COC(=O)CCCCCCCCCCCCC)COP(=O)([O-])OCC[N+](C)(C)C` [PC 14:0_16:0], where the note is “sample type: Human plasma, ion (formula + adduct): [C38H76NO8P+HCOO] 1-”, the “TIMS collisional cross section” value is 282.7 Å².

On to `CC/C=C\C/C=C\C/C=C\CCCCCCCC(=O)O[C@@H](CO)COC(=O)CCCCCCC/C=C\CCCCC` [DG 15:1@_18:3_0:0], for which, for the setting “sample type: Human plasma, ion (formula + adduct): [C36H62O5-H] 1-”, the “TIMS collisional cross section” value stood at 251.2 Å².

`CCCCCC/C=C\CCCCCCCC(=O)OC[C@H](COP(=O)(O)OC1C(O)C(O)C(O)[C@@H](O)C1O)OC(=O)CCCCCCCCCCCCCCC` (stereo not given in full) [PI 16:1_16:0@]: the “TIMS collisional cross section” value (sample type: Human plasma, ion (formula + adduct): [C41H77O13P-H] 1-) is 282.6 Å².
